Test results from patent publication US8143307B2, “Benzothiophen-2-carbonylguanidine derivatives, preparation thereof, and pharmaceutical composition containing the same” (Korea Research Institute of Chemical Technology, priority 2004, dated 2012).

What was measured:
[1] = system: in vivo ischemic rat heart model; assay: Cardioprotective effect on in vivo ischemic rat heart model (coronary occlusion/reperfusion, infarct size); settings: 45 min occlusion, 90 min reperfusion
Protocol: The cardioprotective effect of the benzothiophen-2-carbonylguanidine derivatives according to the present invention in in vivo ischemic hearts was judged with regard to their antischemic effects (myocardiac infarction reduction) on rats as follows.
Each male rat (300˜450 g, the Korea Research Institute of Chemical Technology, Experimental Animal Lab) was anesthetized by intraperitoneal injection with sodium pentobarbital at a dose of 75 mg/kg. Tracheotomy was performed and a tube was inserted into the trachea for subsequent artificial ventilation with a stroke volume of 10 ml/kg and a respiratory rate of 60 breaths/min. The femoral vein and the femoral artery were cannulated for the administration of the compounds and for the measurement of blood pressures, respectively. Meanwhile, the body temperature of the rats, an important factor to influence experimental results in the ischemic myocardiac injury model, was maintained constant at 37° C. using a homeothermic blanket control unit, with a body temperature-monitoring probe inserted into the rectum. Subsequently, rats were continuously measured for mean arterial blood pressure and heart rate HR throughout the experimental time period using a Statham P23XL pressure transducer (Grass Ins., Mass., USA) and an ECG/RATE Coupler (Hugo Sachs Electronic, Germany), respectively, with all continuous changes thereof recorded by Graphtec Linearcorder WR 3310 (Hugo Sachs Electronic).
The left coronary artery was occluded according to Selye H.'s method. In detail, after the chest of each rat was partially opened by left thoracotomy, the middle finger of the left hand was pressed against the right side of the chest of the rat to thrust out the heart which was then slightly fixed with the forefinger and the thumb of the same hand. Then, immediately after the left anterior descending coronary artery (LAD) was sutured with a 5-0 silk ligature, the heart was repositioned back in the thoracic cavity with both ends of the suture positioned outside. The ends of the suture were threaded through a PE tube (PE100, 2.5 cm) and allowed to stand for 20 min for stabilization. Through the cannula inserted into the femoral vein, a vehicle or the compounds of the invention were administered and 30 min was needed for sufficient effects of the administered compounds. Cariporide was used as a control. The ends of the suture threaded through the PE tube were pulled taut with hemostatic forceps to vertically press the PE tube against the coronary artery. After occlusion for 45 min, the hemostatic forceps were removed and reperfusion was conducted for 90 min.
The coronary artery was reoccluded in the same manner as described above, followed by the intravenous injection of 2 ml of 1% Evans blue. The intravenous injection of an excess of pentobarbital killed the rats, from which the hearts were then excised. The left ventricle was removed alone from the isolated heart and transected from the cardiac apex into 5 or 6 slices. Each slice was weighed. The image of each of the heart slices was captured using a Hi-scope, a compact vision system, and analyzed for blue-stained normal areas and non-stained areas with an image analyzing program (Image Pro Plus). In each slice, the area at risk (AAR) was calculated by multiplying the ratio of the non-stained area to the total area of the slice with the weight of the slice. Sum of the individual area at risk (AAR) for each slice was divided by the total weight of the left ventricle to obtain AAR (%) according to the following mathmatical formula 1.
Separately, the heat slices were incubated in 1%. 2,3,5-triphenyltetrazolium chloride (TTC) phosphate buffer (pH 7.4), 37° C., for 15 min and fixed in 10% formalin for 20˜24 hours. In the normal area of the tissue, 2,3,5-triphenyltetrazolium chloride was reduced by the myocardial dehydrogenase in the presence of the cofactor NADH to form formazan dye, which appeared as a brick-red color. […]

[2] = biological target: T1, Human NHE-1 (Homo sapiens, UniProt P19634); assay: Inhibitory effect on NHE-1 in PS120/NHE-1 cells (recovery from intracellular acidosis, BCECF fluorescence); assay type: cell-based; settings: human NHE-1 expressed PS120 cells; concentration at which recovery from intracellular acidosis was 50% inhibited
T1 construct: expressed in transfected cells; host or cells: CCL39-derived PS120 cells (PS120/NHE-1)
T1 sequence (P19634 whole entry): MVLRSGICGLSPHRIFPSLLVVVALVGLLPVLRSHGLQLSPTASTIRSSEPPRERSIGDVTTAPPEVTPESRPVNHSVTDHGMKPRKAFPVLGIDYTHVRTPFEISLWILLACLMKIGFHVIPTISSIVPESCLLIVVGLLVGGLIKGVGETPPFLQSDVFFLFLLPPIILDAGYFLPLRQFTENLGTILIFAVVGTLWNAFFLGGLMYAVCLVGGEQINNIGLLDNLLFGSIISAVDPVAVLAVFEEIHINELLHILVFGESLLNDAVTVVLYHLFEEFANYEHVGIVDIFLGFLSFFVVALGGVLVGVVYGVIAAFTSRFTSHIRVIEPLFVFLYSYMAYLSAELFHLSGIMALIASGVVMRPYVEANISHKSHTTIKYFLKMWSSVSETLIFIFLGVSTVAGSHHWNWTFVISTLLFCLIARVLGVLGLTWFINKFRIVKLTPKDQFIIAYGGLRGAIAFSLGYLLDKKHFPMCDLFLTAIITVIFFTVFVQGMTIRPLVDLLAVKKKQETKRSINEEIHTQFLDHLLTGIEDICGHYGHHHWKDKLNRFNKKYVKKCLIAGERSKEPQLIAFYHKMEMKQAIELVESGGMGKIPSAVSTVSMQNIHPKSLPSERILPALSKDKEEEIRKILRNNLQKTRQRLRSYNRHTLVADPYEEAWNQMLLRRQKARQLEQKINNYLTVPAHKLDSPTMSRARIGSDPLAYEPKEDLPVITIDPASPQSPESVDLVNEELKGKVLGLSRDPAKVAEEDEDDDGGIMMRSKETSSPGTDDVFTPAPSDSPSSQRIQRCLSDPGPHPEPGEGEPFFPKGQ
Protocol: The benzothiophen-2-carbonylguanidine derivatives of the present invention were examined for NHE-1 inhibitory effect in cells according to the following procedure.
Human NHE-1 was expressed in CCL39-derived PS120 cells. These human NHE-1 expressed cells were cultured in DMEM (Dulbecco's modified Eagle's medium) supplemented with 10% fetal bovine serum, 1% penicillin/streptomycin (100× solution), 1% L-glutamine (200 mM aqueous solution). The PS120/NHE-1 cells grown in 100 mm dishes were treated with trypsin at 80-90% confluency, followed by washing with PBS (phosphate buffer saline) once, and then once with an Na-free buffer (138.2 mM Choline chloride, 4.9 mM KCl, […]. 2H2O, 1.2 mM MgSO4.7H2O, 1.2 mM KH2PO4, 15 mM D-glucose, 20 mM HEPES, at pH 7.4). After centrifugation, the pellet was suspended in an Na-free buffer containing 20 mM NH4Cl and 10 μM BCECF-AM [2′,7′-bis(2-carboxyethyl)-5,6-carboxy-fluorescein acetoxymethyl ester] and incubated at 37° C. for 30 min in a CO2 incubator. After being harvested by centrifugation, the PS120/NHE-1 cells were washed once with an Na-free buffer to remove both NH4Cl and extracellular BCECF-AM, suspended at a density of 2.5×10^4 cells/10 μl and stored at 4° C. in a dark room until reuse. In each well of 96-well microplates, 180 μl of HBS (137 mM NaCl, 4.9 mM KCl, 1.5 mM CaCl2. 2H2O, 1.2 mM MgSO4.7H2O, 1.2 mM KH2PO4, 15 mM D-glucose, 20 mM HEPES, at pH 7.4) and 10 μl of DMSO or 10 μl of a solution of the compound (0.03˜10 μM) of the present invention in DMSO were placed and well mixed, after which 10 μl aliquots of the intracellular acidosis-induced PS120/NHE-1 cells were added thereto. 4 min after the cell addition, fluorescence (excitation: 485/444 nm, emission: 535 nm) was measured in the GEMINI-XS Microplate Spectrofluorometer (Molecular Devices). The fluorescence measured was converted into pH values using a high-K^+/nigericin technique. The cells in which intracellular acidosis was induced with NH4Cl prepulses, were recovered to normal pH values through the operation of NHE-1. The inhibitory effect of the compound against NHE-1 was evaluated as concentrations at which the recovery from the intracellular acidosis to a normal state was 50% inhibited (IC50 values), with cariporide used as a control.

[3] = system: isolated ischemic rat heart; assay: Cardioprotective effect in isolated ischemic rat heart model (Langendorff); settings: 10 μM, 30 min global ischemia, 30 min reperfusion
Protocol: Male rats (300 450 g, the Korea Research Institute of Chemical Technology, Experimental Animal Lab) were anesthetized by intraperitoneal injection with sodium pentobarbital at a dose of 100 mg/kg and were intravenously administered with heparine at a dose of 1000 U/kg, followed by the excision of the heart. In detail, a tracheotomy was performed and a tracheal cannula (PE 240) was inserted into the trachea for subsequent artificial ventilation with room air using a rodent ventilator. […] A catheter tip manometer connected to a latex balloon filled with a mixture of ethanol and distilled water (1:1 v/v) was inserted via an incision in the left atrium into the left ventricle, and the intraventricular pressure thereof transmitted to the latex balloon was measured isovolumetrically with a transducer and recorded on a recording system (Linearcorder mark 8 WR 3500) with the aid of an amplifier (Plugsys bridge amplifier). After stabilizing the heart for 15 min, the balloon volume was adjusted to create a left ventricular end-diastolic pressure (LVEDP) of 5 mmHg during the initial baseline period. The volume of the balloon was maintained until the end of the experiment. Baseline heart contraction function, spontaneous heart rate (HR) and coronary flow (CF) were determined from the left ventricular contraction interval. The left ventricular developed pressure (LVDP), which is regarded as an index of contractile function of the isolated heart, was calculated by subtracting left ventricular end-diastolic pressure (LVEDP) from left ventricular peak systolic pressure (LVSP). In contrast to the heart in the body, the Langendorff heart cannot be measured for cardiac output and thus, RPP (rate-pressure product), which is an important indirect indicator for cardiac performance, was calculated by multiplying heart rate (HR) by LVDP. Throughout the experiment, the temperature of the heart was maintained constant by […] in a 37° C. physiological solution to which 95% O2/5% CO2 was continuously supplied. The heart thus stabilized was perfursed for 10 min with a solution of the compounds of the invention or control drugs in DMSO (dimethylsulfoxide) diluted with HBS (final DMSO conc. 0.04%), or with the solvent only (a negative control; 0.04% DMSO) and then measured again for contractile function, heart rate (HR) and coronary flow (CF). The supply of perfusates was completely stopped for 30 min in order to induce global ischemia in the heart, followed by reperfusion for 30 min. The indices (LVDP, HR, LVEDP, and CF) were measured again. After the reperfusion, the total level of lactate dehydrogenase (LDH) in the reperfusates was measured using a kit and taken as an index of ischemic myocardial injury. A negative control group was treated with the solvent only while cariporide was used as a positive control.

CCc1cccc2sc(C(=O)N=C(N)N)cc12.CS(=O)(=O)O [Example 37, (4-Ethylbenzothiophene-2-Carbonyl)Guanidine Methanesulfonate]
Myocardiac infarction rate (IS/AAR, %) ([1]; 0.1 mg/kg intravenous): 51.6%
IC50 [2]: 0.27 µM
LDH (free LDH level upon reperfusion) [3]: 7.1 u/g
LVEDP (left ventricular end-diastolic pressure) [3]: 37.7 mmHg
RPP (rate-pressure product (LVDP × HR) % relative to the value before ischemia induction) [3]: 43.4%

CC(C)c1ccc(C(=O)NC(=N)N)cc1S(C)(=O)=O [Cariporide, cariporide, reference compound]
Myocardiac infarction rate (IS/AAR, %) ([1]; 0.1 mg/kg intravenous): 40.5%
Myocardiac infarction rate (IS/AAR, %) ([1]; 0.3 mg/kg intravenous): 37.9%
IC50 [2]: 0.68 µM
LDH (free LDH level upon reperfusion) [3]: 19.3 u/g
LVEDP (left ventricular end-diastolic pressure) [3]: 22.4 mmHg
RPP (rate-pressure product (LVDP × HR) % relative to the value before ischemia induction) [3]: 69.8%
